From US20250268919A1, “COMPOUNDS FOR THE TREATMENT OF CANCER” (Amneal Pharmaceuticals LLC, priority 2021, published 2025)

Legend:
in vitro [1] = conditions: human, Caco-2
MCF7 tumor = experiment: Anticancer efficacy of compound 121 in nude mice bearing MCF7 tumor; format: in vivo; conditions: 1 mg/mouse (~33.3 mg/kg) subcutaneously; MCF-7 xenograft mice
Procedure: For this purpose, MCF7 cancer cells were procured from ATCC and grown in DMEM Medium supplemented with 10% FBS and 1% penicillin streptomycin. Cells were harvested when they reach 70-80% confluence for tumor implantation. 24 h prior to MCF7 cells implantation, the skin area around the injection site of nude mice were disinfected by mildly swabbing with surgical spirit. […] pellet (0.18 mg/pellet 60-day release, Innovative Research of America) was subcutaneously implanted into in the left flank region of the animals. For cell inoculation, cells were mixed with equal volume of Matrigel in a 1:1 ratio followed by injection of 5×10^6 MCF7 cells subcutaneously on the right flank region using a 1 mL syringe attached to a 24 G needle. On the subsequent days the injection site was monitored for tumor palpability. Tumor grafts were measured within 7-8 days of cell inoculation for tumor palpability. […]
After randomization, treatment was initiated when the average tumor volume reaches −200±50 mm^3. Tumor volume and mouse body weight were measured on the first day of treatment (Day 1) and then three times per week till 28 days as shown in FIG. 4. […]
Tumor volume (mm^3) was calculated using the formula, tumor length×(tumor width)2/2. Tumor growth inhibition will be calculated after normalizing the values to that on day 1. % TGI was calculated based on the formula below.

[2] = Pharmacokinetic study in monkey, single oral dose; format: in vivo; conditions: 50 mg/kg single oral; Cynomolgus monkey; plasma
Procedure: The objective of the study was to evaluate pharmacokinetic exposure of compound 121 after per oral dosing at 25 mg/kg dose and Fulvestrant after per oral dosing at 50 mg/kg dose in Cynomolgus monkey. The study was performed in overnight fasted Cynomolgus monkeys.
Blood samples were collected at each time points like 0 h (pre-dose) and 0.25, 0.5, 1, 2, 4, 8, 12, 24, 36 and 48 h post-dose via the cephalic or saphenous veins into polyethylene microcentrifuge tubes containing potassium (K2) EDTA. There were total 11 time points, n=1 monkey. All blood samples were mixed well by inversion and placed on wet ice until processed for plasma. Blood samples were centrifuged at 2˜8° C. for 10 min at 3000 g to collect plasma. Plasma samples of approximately […] at each time point were used for the bioanalysis. The plasma samples were stored frozen in a freezer set to maintain −60° C. to −70° C. until LC/MS/MS analysis.
Bioanalysis was performed using fit-for-purpose LC-MS/MS method for the quantification of compound 121 or Fulvestrant in plasma samples. The calibration curve was prepared in stabilized blank monkey plasma over 1-1000 ng/mL range for compound 121 and 1-3000 ng/mL range for Fulvestrant. Samples were cleaned up using the protein precipitation technique and analysed by LC-MS/MS.
The plasma pharmacokinetic parameters were calculated using standard non-compartmental analysis (using linear trapezoidal method with linear interpolation.)

in vitro [3] = conditions: human, microsomes, pH 7.4
Procedure: The assay was performed in duplicate.
Supernatant (200 μL) from each reaction tube was taken for LC-MS/MS analysis.

CACO-2 cell line = conditions: standard compounds at 5 μM; apical to basolateral

C[C@H]1O[C@@H](O[C@H]2[C@@H](O)C[C@H](O[C@H]3[C@@H](O)C[C@H](O[C@H]4CC[C@@]5(C)[C@H](CC[C@@H]6[C@@H]5C[C@@H](O)[C@]5(C)[C@@H](C7=CC(=O)OC7)CC[C@]65O)C4)O[C@@H]3C)O[C@@H]2C)C[C@H](O)[C@@H]1O [Digoxin]
efflux ratio at 5 μM (in vitro [1]): 19.7

C[C@]12CC[C@@H]3c4ccc(O)cc4C[C@@H](CCCCCCCCC[S+]([O-])CCCC(F)(F)C(F)(F)F)[C@H]3[C@@H]1CC[C@@H]2O (stereo partly drawn) [Fulvestrant]
% Tumor Growth Inhibition (% TGI) on day 28 (MCF7 tumor): 101%
AUC % Extrap [2]: Inestimable
AUC_0-t [2]: Inestimable
AUC_0-∞ [2]: Inestimable
Cmax [2]: Inestimable
Tmax [2]: Inestimable

CC(=O)N1CCN(c2ccc(OCC3COC(Cn4ccnc4)(c4ccc(Cl)cc4Cl)O3)cc2)CC1 (stereo not drawn) [Ketoconazole]
half-life (in vitro [3]): > 2 h

CC(C)NCC(O)COc1cccc2ccccc12 (stereo not drawn) [Propranolol]
A-B permeability (CACO-2 cell line): 62.15 ×10⁻⁶ cm/s
